Measurements taken from patent US20190389843A1, “PYRROLE mTORC INHIBITORS AND USES THEREOF” (Navitor Pharmaceuticals, Inc., priority 2016, published 2019).

Tests used:
[1] = system: pS6K1 in MCF7 (measure of mTORC1 activity); test: AlphaLISA Ultra pS6K1 assay; assay type: cell-based; details: Homo sapiens, MCF7, 2 h, MCF-7 cells, 2 hours compound incubation
Protocol: (§1) Assay Protocol: • 1. […] 12,000˜16,000 cells will be seeded in 36 μL medium per well. • 2. Change the culture medium with fresh medium and incubate for another 2 hours. • 3. Add 12 μL (4λ) compounds into the cell plate by HAMILTON. Final DMSO concentration is 0.5%. Incubate for 2 hours. • 4. Aspirate 38 μL by HAMILTON, 10 μL rest per well. • 5. Add 10 μL 2× lysis buffer using HAMILTON; total volume in wells is 20 μL. Allow cells to shake for 30 min. Cover plate by plastic foil and store plate at −80° C. up to analysis. • 6. […] Add 5 ul acceptor beads into assay plate and incubation for 2 hours • 8. Add 5 ul donor beads and incubation for 2 hours • 9. Count the plate by EnSpire Multimode Plate Reader

[2] = system: pAKT in MCF7 (measure of mTORC2 activity); test: AlphaLISA Ultra pAKT assay; assay type: cell-based; details: Homo sapiens, MCF7, 2 h, MCF-7 cells, 2 hours compound incubation
Protocol: as §1, with “16,000˜20,000” for “12,000˜16,000”, “(4×)” for “(4λ)”

IC50 [1] [nM]	IC50 [2] [nM]	SMILES
10 to 1000	> 10000	Cc1c(CN2CCN(c3ccccc3Cl)CC2)cc(C(=O)N2CCN(c3cnccn3)C[C@@H]2C)n1C [Example I-51, (S)-(4-((4-(2-chlorophenyl)piperazin-1-yl)methyl)-1,5-dimethyl-1H-pyrrol-2-yl)(2-methyl-4-(pyrazin-2-yl)piperazin-1-yl)methanone]
1000 to 3000	> 10000	Cc1c(CN2CCN(c3ccccc3C#N)CC2)cc(C(=O)N2CCN(c3ccc(C#N)cc3)CC2)n1C [Example I-53]
10 to 1000	> 1000	Cc1c(CN2CCN(c3ccccc3C#N)CC2)cc(C(=O)N2CCN(c3ccccc3)CC2)n1C [Example I-54]
10 to 1000	> 1000	Cc1c(CN2CCN(c3ccccc3C#N)CC2)cc(C(=O)N2CCN(c3ccc(F)cc3)CC2)n1C [Example I-55]
10 to 1000	> 3000	Cc1c(CN2CCN(c3ccccc3C#N)CC2)cc(C(=O)N2CCN(c3ncccc3C#N)CC2)n1C [Example I-56]
10 to 1000	> 3000	C[C@H]1CN(c2cccc(C#N)c2)CCN1C(=O)c1cc(CN2CCN(c3ccccc3C#N)CC2)cn1C [Example I-57]
10 to 1000	> 10000	C[C@H]1CN(c2ccccc2C#N)CCN1C(=O)c1cc(CN2CCN(c3ccccc3C#N)CC2)cn1C [Example I-58]
1000 to 3000	> 3000	Cc1c(CN2CCN(c3ccccc3Cl)CC2)cc(C(=O)N2CCN(c3cc(C#N)ccn3)CC2)n1C [Example I-59]
10 to 1000	> 3000	Cc1c(CN2CCN(c3ccccc3C#N)CC2)cc(C(=O)N2CCN(c3ccccn3)CC2)n1C [Example I-60]
10 to 1000	> 3000	COc1ccnc(N2CCN(C(=O)c3cc(CN4CCN(c5ccccc5C#N)CC4)c(C)n3C)CC2)c1 [Example I-61]
10 to 1000	> 3000	Cc1ccnc(N2CCN(C(=O)c3cc(CN4CCN(c5ccccc5C#N)CC4)c(C)n3C)CC2)c1 [Example I-62]
10 to 1000	> 3000	Cc1cccc(N2CCN(C(=O)c3cc(CN4CCN(c5ccccc5C#N)CC4)c(C)n3C)CC2)n1 [Example I-64]
10 to 1000	> 3000	Cc1c(CN2CCN(c3ccccc3C#N)CC2)cc(C(=O)N2CCN(c3cc(C#N)ccn3)CC2)n1C [Example I-65]
10 to 1000	> 3000	Cc1c(CN2CCN(c3ccccc3C#N)CC2)cc(C(=O)N2CCN(c3cccc(C#N)c3)C[C@@H]2C)n1C [Example I-66]
10 to 1000	> 10000	Cc1c(CN2CCN(c3ccccc3C#N)CC2)cc(C(=O)N2CCN(c3ccccc3C#N)C[C@@H]2C)n1C [Example I-67]
10 to 1000	> 1000	Cc1c(CN2CCN(c3ccccc3C#N)CC2)cc(C(=O)N2CCN(c3cc(Cl)ccn3)CC2)n1C [Example I-68]
10 to 1000	> 3000	COc1cccc(N2CCN(C(=O)c3cc(CN4CCN(c5ccccc5C#N)CC4)c(C)n3C)CC2)n1 [Example I-69]

IC50 [1] [nM]	IC50 [2] [nM]	SMILES
10 to 1000	> 3000	Cc1ccnc(N2CCN(C(=O)c3cc(CN4CCN(c5ccccc5Cl)CC4)c(C)n3C)CC2)c1 [Example I-70]
10 to 1000	> 3000	Cc1c(CN2CCN(c3ccccc3Cl)CC2)cc(C(=O)N2CCN(c3cc(Cl)ccn3)CC2)n1C [Example I-71]
3000 to 10000	> 10000	Cn1cc(CN2CCN(c3ccccc3C#N)CC2)cc1C(=O)N1CCN(c2ccc(F)cc2)CC1 [Example I-73]
1000 to 3000	> 10000	Cc1c(CN2CCN(c3ccccc3Cl)CC2)cc(C(=O)N2CCN(c3ncccn3)C[C@@H]2C)n1C [Example I-74, (S)-(4-((4-(2-chlorophenyl)piperazin-1-yl)methyl)-1,5-dimethyl-1H-pyrrol-2-yl)(2-methyl-4-(pyrimidin-2-yl)piperazin-1-yl)methanone]
1000 to 3000	> 5000	Cc1c(CN2CCN(c3ccccc3Cl)CC2)cc(C(=O)N2CCN(c3cccc(F)c3)C[C@@H]2C)n1C [Example I-75, (S)-(4-((4-(2-chlorophenyl)piperazin-1-yl)methyl)-1,5-dimethyl-1H-pyrrol-2-yl)(4-(3-fluorophenyl)-2-methylpiperazin-1-yl)methanone 2,2,2-trifluoroacetate]
1000 to 3000	> 5000	Cc1c(CN2CCN(c3ccccc3Cl)CC2)cc(C(=O)N2CCN(c3ncc(F)cn3)C[C@@H]2C)n1C [Example I-77, (S)-(4-((4-(2-chlorophenyl)piperazin-1-yl)methyl)-1,5-dimethyl-1H-pyrrol-2-yl)(4-(5-fluoropyrimidin-2-yl)-2-methylpiperazin-1-yl)methanone]
10 to 1000	> 3000	Cc1c(CN2CCN(c3ncccc3Cl)CC2)cc(C(=O)N2CCN(c3ccc(F)c(F)c3)C[C@@H]2C)n1C [Example I-78, (S)-(4-((4-(3-chloropyridin-2-yl)piperazin-1-yl)methyl)-1,5-dimethyl-1H-pyrrol-2-yl)(4-(3,4-difluorophenyl)-2-methylpiperazin-1-yl)methanone]
10 to 1000	> 3000	Cc1c(CN2CCN(c3ncccc3Cl)CC2)cc(C(=O)N2CCN(c3cccc(C#N)c3)CC2)n1C [Example I-79, 3-(4-(4-((4-(3-Chloropyridin-2-yl)piperazin-1-yl)methyl)-1,5-dimethyl-1H-pyrrole-2-carbonyl)piperazin-1-yl)benzonitrile]
10 to 1000	> 3000	Cc1c(CN2CCN(c3ncccc3Cl)CC2)cc(C(=O)N2CCN(c3ccc(F)cc3)CC2)n1C [Example I-80, (4-((4-(3-Chloropyridin-2-yl)piperazin-1-yl)methyl)-1,5-dimethyl-1H-pyrrol-2-yl)(4-(4-fluorophenyl)piperazin-1-yl)methanone]
1000 to 3000	> 10000	Cc1c(CN2CCN(c3ccccc3Cl)CC2)cc(C(=O)N2CCn3nc(-c4ccccc4)cc3C2)n1C [Example I-81, (4-((4-(2-Chlorophenyl)piperazin-1-yl)methyl)-1,5-dimethyl-1H-pyrrol-2-yl)(2-phenyl-6,7-dihydropyrazolo[1,5-a]pyrazin-5(4H)-yl)methanone 2,2,2-trifluoroacetate]
1000 to 3000	> 10000	Cc1c(CN2CCN(c3ccccc3Cl)CC2)cc(C(=O)N2CCN(c3ccc(F)c(Cl)c3)CC2)n1C [Example I-82, (4-(3-chloro-4-fluorophenyl)piperazin-1-yl)(4-((4-(2-chlorophenyl)piperazin-1-yl)methyl)-1,5-dimethyl-1H-pyrrol-2-yl)methanone]
1000 to 3000	> 10000	Cc1c(CN2CCN(c3ccccc3N=[N+]=[N-])CC2)cc(C(=O)N2CCN(c3ccccc3)C[C@@H]2C)n1C [Example I-83, (S)-(4-((4-(2-azidophenyl)piperazin-1-yl)methyl)-1,5-dimethyl-1H-pyrrol-2-yl)(2-methyl-4-phenylpiperazin-1-yl)methanone]
10 to 1000	> 3000	Cc1c(CN2CCN(c3ncccc3Cl)CC2)cc(C(=O)N2CCN(c3ccc(F)c(F)c3)CC2)n1C [Example I-84, (4-((4-(3-chloropyridin-2-yl)piperazin-1-yl)methyl)-1,5-dimethyl-1H-pyrrol-2-yl)(4-(3,4-difluorophenyl)piperazin-1-yl)methanone]
10 to 1000	> 3000	Cc1c(CN2CCN(c3ccccc3Cl)CC2)cc(C(=O)N2CCN(c3cc(F)ccc3C#N)CC2)n1C [Example I-85, 2-(4-(4-((4-(2-Chlorophenyl)piperazin-1-yl)methyl)-1,5-dimethyl-1H-pyrrole-2-carbonyl)piperazin-1-yl)-4-fluorobenzonitrile]
10 to 1000	> 10000	Cc1c(CN2CCN(c3ccccc3Cl)CC2)cc(C(=O)N2CCN(c3cc(F)ccc3C#N)C[C@@H]2C)n1C [Example I-86, (S)-2-(4-(4-((4-(2-chlorophenyl)piperazin-1-yl)methyl)-1,5-dimethyl-1H-pyrrole-2-carbonyl)-3-methylpiperazin-1-yl)-4-fluorobenzonitrile]
10 to 1000	> 5000	C[C@H]1CN(c2cc(F)ccc2C#N)CCN1C(=O)c1cc(CN2CCN(c3ccccc3Cl)CC2)cn1C [Example I-87, (S)-2-(4-(4-((4-(2-chlorophenyl)piperazin-1-yl)methyl)-1-methyl-1H-pyrrole-2-carbonyl)-3-methylpiperazin-1-yl)-4-fluorobenzonitrile]

SMILES	IC50 [1] [nM]	IC50 [2] [nM]
Cc1c(CN2C3CCC2CN(c2ccccc2C#N)C3)cc(C(=O)N2CCN(c3ccccn3)CC2)n1C [Example I-52, 2-(8-((1,2-dimethyl-5-(4-(pyridin-2-yl)piperazine-1-carbonyl)-1H-pyrrol-3-yl)methyl)-3,8-diazabicyclo[3.2.1]octan-3-yl)benzonitrile]	10 to 1000	> 10000
